Tested on: 317291-083-R-J1-PDC complex spheroids, viability
Test: Anticancer human tumor 317291-083-R-J1-PDC patient-derived soft tissue sarcoma cell line growth inhibition [GQUAD]
Settings: for IC50: curve of first compound; for viability, T/C: stronger effect = lower value
Outline: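 Multi-cell-type spheroids of tumor cells with HUVEC and mesenchymal stem cells, treated with drug combinations. Concentrations descend in half-log steps from near clinical Cmax, or from 10 microM where Cmax is unknown; viability read-out.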

[1] = second compound 0.0316 µM, first compound 0.0316 µM
[2] = second compound 0.0316 µM, first compound 0.1 µM
[3] = second compound 0.0316 µM, first compound 0.316 µM
[4] = second compound 0.0316 µM, first compound 1 µM
[5] = second compound 0.0316 µM, first compound 3.16 µM
[6] = second compound 0.0316 µM, first compound 10 µM
[7] = second compound 0.1 µM, first compound 0.0316 µM
[8] = second compound 0.1 µM, first compound 0.1 µM
[9] = second compound 0.1 µM, first compound 0.316 µM
[10] = second compound 0.1 µM, first compound 1 µM
[11] = second compound 0.1 µM, first compound 3.16 µM
[12] = second compound 0.1 µM, first compound 10 µM
[13] = second compound 0.316 µM, first compound 0.0316 µM
[14] = second compound 0.316 µM, first compound 0.1 µM
[15] = second compound 0.316 µM, first compound 0.316 µM
[16] = second compound 0.316 µM, first compound 1 µM
[17] = second compound 0.316 µM, first compound 3.16 µM
[18] = second compound 0.316 µM, first compound 10 µM
[19] = second compound 1 µM, first compound 0.0316 µM
[20] = second compound 1 µM, first compound 0.1 µM
[21] = second compound 1 µM, first compound 0.316 µM
[22] = second compound 1 µM, first compound 1 µM
[23] = second compound 1 µM, first compound 3.16 µM
[24] = second compound 1 µM, first compound 10 µM
[25] = second compound 3.16 µM, first compound 0.0316 µM
[26] = second compound 3.16 µM, first compound 0.1 µM
[27] = second compound 3.16 µM, first compound 0.316 µM
[28] = second compound 3.16 µM, first compound 1 µM
[29] = second compound 3.16 µM, first compound 3.16 µM
[30] = second compound 3.16 µM, first compound 10 µM
[31] = second compound 10 µM, first compound 0.0316 µM
[32] = second compound 10 µM, first compound 0.1 µM
[33] = second compound 10 µM, first compound 0.316 µM
[34] = second compound 10 µM, first compound 1 µM
[35] = second compound 10 µM, first compound 3.16 µM
[36] = second compound 10 µM, first compound 10 µM
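Note: spheroids exposed to compounds for one week before readout.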
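Throughout, for viability, T/C: percent viability relative to DMSO vehicle wells taken as 100%.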

## CC(C)(O)C1CCC(Nc2ccc3ncc(-c4cccc(C(F)(F)F)c4)n3n2)CC1 (stereo unspecified) + CN(C)c1ccc(Nc2c3ccc(NC(=O)CCN4CCCC4)cc3nc3cc(NC(=O)CCN4CCCC4)ccc23)cc1
Second compound 0.0316 µM
  IC50: 789 nM
Second compound 0.1 µM
  IC50: 691 nM
Second compound 0.316 µM
  IC50: 455 nM
Second compound 1 µM
  IC50: 44.7 nM
Second compound 3.16 µM
  IC50: < 31.6 nM
Second compound 10 µM
  IC50: < 31.6 nM
[1]
  viability, T/C: 103%
[2]
  viability, T/C: 106%
[3]
  viability, T/C: 99.8%
[4]
  viability, T/C: 37.1%
[5]
  viability, T/C: 0.9%
[6]
  viability, T/C: 0.94%
[7]
  viability, T/C: 97.5%
[8]
  viability, T/C: 92.2%
[9]
  viability, T/C: 102%
[10]
  viability, T/C: 27.6%
[11]
  viability, T/C: 0.49%
[12]
  viability, T/C: 0.46%
[13]
  viability, T/C: 65.9%
[14]
  viability, T/C: 65.7%
[15]
  viability, T/C: 72%
[16]
  viability, T/C: 11.3%
[17]
  viability, T/C: 0.66%
[18]
  viability, T/C: 0.64%
[19]
  viability, T/C: 59.3%
[20]
  viability, T/C: 25.4%
[21]
  viability, T/C: 28.7%
[22]
  viability, T/C: 3.69%
[23]
  viability, T/C: 0.2%
[24]
  viability, T/C: 0.13%
[25]
  viability, T/C: 5.54%
[26]
  viability, T/C: 1.6%
[27]
  viability, T/C: 6.22%
[28]
  viability, T/C: 0.39%
[29]
  viability, T/C: 0.12%
[30]
  viability, T/C: 0.29%
[31]
  viability, T/C: 0.6%
[32]
  viability, T/C: 0.45%
[33]
  viability, T/C: 0.27%
[34]
  viability, T/C: 0.46%
[35]
  viability, T/C: 0.22%
[36]
  viability, T/C: 0.31%

## Cc1[nH]c2ccccc2c1CCNCc1ccc(/C=C/C(=O)NO)cc1 + CN(C)c1ccc(Nc2c3ccc(NC(=O)CCN4CCCC4)cc3nc3cc(NC(=O)CCN4CCCC4)ccc23)cc1
Second compound 0.0316 µM
  IC50: 40 nM
Second compound 0.1 µM
  IC50: 35.1 nM
Second compound 0.316 µM
  IC50: 19.7 nM
Second compound 1 µM
  IC50: < 0.999 nM
Second compound 3.16 µM
  IC50: < 0.999 nM
Second compound 10 µM
  IC50: < 0.999 nM
Second compound 0.0316 µM, first compound 0.000999 µM
  viability, T/C: 104%
Second compound 0.0316 µM, first compound 0.00316 µM
  viability, T/C: 121%
Second compound 0.0316 µM, first compound 0.00999 µM
  viability, T/C: 101%
[1]
  viability, T/C: 61.3%
Second compound 0.0316 µM, first compound 0.0999 µM
  viability, T/C: 8.25%
[3]
  viability, T/C: 0.39%
Second compound 0.1 µM, first compound 0.000999 µM
  viability, T/C: 119%
Second compound 0.1 µM, first compound 0.00316 µM
  viability, T/C: 102%
Second compound 0.1 µM, first compound 0.00999 µM
  viability, T/C: 95.4%
[7]
  viability, T/C: 56.6%
Second compound 0.1 µM, first compound 0.0999 µM
  viability, T/C: 7.42%
[9]
  viability, T/C: 0.13%
Second compound 0.316 µM, first compound 0.000999 µM
  viability, T/C: 79.9%
Second compound 0.316 µM, first compound 0.00316 µM
  viability, T/C: 75.7%
Second compound 0.316 µM, first compound 0.00999 µM
  viability, T/C: 74.9%
[13]
  viability, T/C: 33.1%
Second compound 0.316 µM, first compound 0.0999 µM
  viability, T/C: 5.76%
[15]
  viability, T/C: 0.14%
Second compound 1 µM, first compound 0.000999 µM
  viability, T/C: 48.6%
Second compound 1 µM, first compound 0.00316 µM
  viability, T/C: 30.2%
Second compound 1 µM, first compound 0.00999 µM
  viability, T/C: 33.6%
[19]
  viability, T/C: 15.8%
Second compound 1 µM, first compound 0.0999 µM
  viability, T/C: 2.82%
[21]
  viability, T/C: 0.27%
Second compound 3.16 µM, first compound 0.000999 µM
  viability, T/C: 6.7%
Second compound 3.16 µM, first compound 0.00316 µM
  viability, T/C: 4.52%
Second compound 3.16 µM, first compound 0.00999 µM
  viability, T/C: 7.77%
[25]
  viability, T/C: 1.86%
Second compound 3.16 µM, first compound 0.0999 µM
  viability, T/C: 0.59%
[27]
  viability, T/C: 0.18%
Second compound 10 µM, first compound 0.000999 µM
  viability, T/C: 0.17%
Second compound 10 µM, first compound 0.00316 µM
  viability, T/C: 0.22%
Second compound 10 µM, first compound 0.00999 µM
  viability, T/C: 0.54%
[31]
  viability, T/C: 2%
Second compound 10 µM, first compound 0.0999 µM
  viability, T/C: 0.38%
[33]
  viability, T/C: 0.28%

## O=c1[nH]cc(F)c(=O)[nH]1 + CN(C)c1ccc(Nc2c3ccc(NC(=O)CCN4CCCC4)cc3nc3cc(NC(=O)CCN4CCCC4)ccc23)cc1
Second compound 0.0316 µM
  IC50: 2320 nM
Second compound 0.1 µM
  IC50: 2440 nM
Second compound 0.316 µM
  IC50: 1760 nM
Second compound 1 µM
  IC50: 31.6 nM
Second compound 3.16 µM
  IC50: < 31.6 nM
Second compound 10 µM
  IC50: < 31.6 nM
[1]
  viability, T/C: 91.6%
[2]
  viability, T/C: 83.3%
[3]
  viability, T/C: 101%
[4]
  viability, T/C: 74.3%
[5]
  viability, T/C: 43.5%
[6]
  viability, T/C: 38.5%
[7]
  viability, T/C: 110%
[8]
  viability, T/C: 106%
[9]
  viability, T/C: 103%
[10]
  viability, T/C: 69.7%
[11]
  viability, T/C: 46.2%
[12]
  viability, T/C: 36.6%
[13]
  viability, T/C: 89.4%
[14]
  viability, T/C: 74.7%
[15]
  viability, T/C: 83.2%
[16]
  viability, T/C: 56.4%
[17]
  viability, T/C: 42.1%
[18]
  viability, T/C: 29.5%
[19]
  viability, T/C: 53.2%
[20]
  viability, T/C: 43.2%
[21]
  viability, T/C: 51.1%
[22]
  viability, T/C: 21.3%
[23]
  viability, T/C: 29.4%
[24]
  viability, T/C: 23.3%
[25]
  viability, T/C: 36.6%
[26]
  viability, T/C: 27.3%
[27]
  viability, T/C: 35.1%
[28]
  viability, T/C: 26.8%
[29]
  viability, T/C: 27.2%
[30]
  viability, T/C: 22.6%
[31]
  viability, T/C: 7.27%
[32]
  viability, T/C: 5.52%
[33]
  viability, T/C: 17%
[34]
  viability, T/C: 11.3%
[35]
  viability, T/C: 9.24%
[36]
  viability, T/C: 7.86%
